Laboratory results from patent US8247211B2, “Glycopeptide antibiotics” (American Cyanamid Company, priority 2001, dated 2012).
Converted amounts (≈) assume the structure as drawn.

Columns and labels:
Test in all cases: In vitro antibacterial evaluation: minimum inhibitory concentration (MIC), broth dilution method
Type in all cases: cell-based
Escherichia coli [1] = test system: Escherichia coli
Escherichia coli [2] = test system: Escherichia coli; remark: listed apart in the source
Outline: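 NCCLS M7-A2 broth dilution; Muller-Hinton II […]; 5×10^5 CFU/mL; 64-0.06 μg/mL. MIC = lowest concentration with no growth.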

Streptococcus sp. = conditions: 18 hours at 35° C.
Outline: (§1)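 Using Muller-Hinton II […] and an inoculum of 5×10^5 CFU/mL, antibiotic dilutions from 64 down to 0.06 μg/mL were tested following NCCLS M7-A2. The MIC is the lowest concentration inhibiting growth, including in methicillin-, penicillin- or vancomycin-resistant clinical isolates.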

Staphylococcus sp. = conditions: 18 hours at 35° C.
Outline: as §1

Enterococcus sp. = test system: Enterococcus sp.
Outline: as §1

[3] = Enterococcus faecalis (ATCC 29212)
[4] = Enterococcus faecalis (GC 4553)
[5] = Enterococcus faecalis (GC 4554)

## CC(C)CC(=O)OC1C(O)C(CO)OC(OC2C(CO)OC(Oc3ccc(CC4NC(=O)C(C(C)c5cccc(F)c5)NC(=O)CNC(=O)C(CO)NC(=O)C(C(O)C5CNC(=N)N5C5OC(CO)C(O)C(O)C5O)NC(=O)C(C(O)C5CNC(=N)N5)NC4=O)cc3)C(O)C2O)C1O (stereo not drawn) [Example 264b]
Escherichia coli [1]
  MIC Escherichia coli (ATCC 25922): 64 µg/mL (≈ 45.8 µM)
Escherichia coli [2]
  MIC Escherichia coli (GC 4559): >64 µg/mL
  MIC Escherichia coli (GC 4560): 4 µg/mL (≈ 2.86 µM)
Streptococcus sp.; Streptococcus agalactiae (GC 4564)
  MIC Streptococcus agalactiae (GC 4564): 4 µg/mL (≈ 2.86 µM)
Streptococcus sp.; Streptococcus pyogenes (ID-3187)
  MIC Streptococcus pyogenes (ID-3187): 4 µg/mL (≈ 2.86 µM)
Staphylococcus sp.
  MIC Coagulase Negative Staphylococcus (GC 4547): 4 µg/mL (≈ 2.86 µM)
  MIC Coagulase Negative Staphylococcus (GC 4548): 4 µg/mL (≈ 2.86 µM)
  MIC Coagulase Negative Staphylococcus (GC 4549): 4 µg/mL (≈ 2.86 µM)
  MIC Coagulase Negative Staphylococcus (GC 4551): 8 µg/mL (≈ 5.72 µM)
  MIC Staphylococcus aureus (ATCC 29213): 8 µg/mL (≈ 5.72 µM)
  MIC Staphylococcus aureus (GC 1131): 8 µg/mL (≈ 5.72 µM)
  MIC Staphylococcus aureus (GC 4541): 8 µg/mL (≈ 5.72 µM)
  MIC Staphylococcus aureus (GC 4542): 8 µg/mL (≈ 5.72 µM)
  MIC Staphylococcus aureus (GC 4544): 8 µg/mL (≈ 5.72 µM)
  MIC Staphylococcus aureus (GC 4545): 4 µg/mL (≈ 2.86 µM)
  MIC Staphylococcus aureus-SMITH (GC 4543): 8 µg/mL (≈ 5.72 µM)
  MIC Staphylococcus haemolyticus (GC 4546): 4 µg/mL (≈ 2.86 µM)
Staphylococcus sp.; broth dilution
  MIC Coagulase Negative Staphylococcus (GC 4547): 4 µg/mL (≈ 2.86 µM)
  MIC Coagulase Negative Staphylococcus (GC 4548): 4 µg/mL (≈ 2.86 µM)
  MIC Coagulase Negative Staphylococcus (GC 4549): 4 µg/mL (≈ 2.86 µM)
  MIC Coagulase Negative Staphylococcus (GC 4551): 8 µg/mL (≈ 5.72 µM)
  MIC Staphylococcus aureus (ATCC 29213): 8 µg/mL (≈ 5.72 µM)
  MIC Staphylococcus aureus (GC 1131): 8 µg/mL (≈ 5.72 µM)
  MIC Staphylococcus aureus (GC 4541): 8 µg/mL (≈ 5.72 µM)
  MIC Staphylococcus aureus (GC 4542): 8 µg/mL (≈ 5.72 µM)
  MIC Staphylococcus aureus (GC 4544): 8 µg/mL (≈ 5.72 µM)
  MIC Staphylococcus aureus (GC 4545): 4 µg/mL (≈ 2.86 µM)
  MIC Staphylococcus aureus-SMITH (GC 4543): 8 µg/mL (≈ 5.72 µM)
  MIC Staphylococcus haemolyticus (GC 4546): 4 µg/mL (≈ 2.86 µM)
Enterococcus sp.; Enterococcus avium (GC 4558)
  MIC Enterococcus avium (GC 4558): 64 µg/mL (≈ 45.8 µM)
Enterococcus sp.; [3]
  MIC Enterococcus faecalis (ATCC 29212): 64 µg/mL (≈ 45.8 µM)
Enterococcus sp.; Enterococcus faecalis (GC 2242), 18 hours at 35° C.
  MIC Enterococcus faecalis (GC 2242): 32 µg/mL (≈ 22.9 µM)
Enterococcus sp.; Enterococcus faecalis (GC 4552), 18 hours at 35° C.
  MIC Enterococcus faecalis (GC 4552): 64 µg/mL (≈ 45.8 µM)
Enterococcus sp.; [4]
  MIC Enterococcus faecalis (GC 4553): 64 µg/mL (≈ 45.8 µM)
Enterococcus sp.; [5]
  MIC Enterococcus faecalis (GC 4554): 64 µg/mL (≈ 45.8 µM)
Enterococcus sp.; Enterococcus faecium (GC 2243)
  MIC Enterococcus faecium (GC 2243): 64 µg/mL (≈ 45.8 µM)
Enterococcus sp.; Enterococcus faecium (GC 4556)
  MIC Enterococcus faecium (GC 4556): 64 µg/mL (≈ 45.8 µM)
Enterococcus sp.; Enterococcus faecium (GC 4557)
  MIC Enterococcus faecium (GC 4557): 8 µg/mL (≈ 5.72 µM)

## CC(c1ccccc1)C1NC(=O)CNC(=O)C(CO)NC(=O)C(C(O)C2CNC(=N)N2C2OC(CO)C(O)C(O)C2O)NC(=O)C(C(O)C2CNC(=N)N2)NC(=O)C(Cc2ccc(OC3OC(CO)C(OC4OC(CO)C(O)C(O)C4O)C(O)C3O)cc2N)NC1=O (stereo not drawn) [Example 287, Cyclo[glycyl-β-methylphenylalanyl-2-amino-O-(4-O-hexopyranosylhexopyranosyl)tyrosyl-3-(2-iminoimidazolidin-4-yl)seryl-3-(3-hexopyranosyl-2-iminoimidazolidin-4-yl)serylseryl]]
Escherichia coli [1]
  MIC Escherichia coli (ATCC 25922): >64 µg/mL
Escherichia coli [2]
  MIC Escherichia coli (GC 4559): >64 µg/mL
  MIC Escherichia coli (GC 4560): >64 µg/mL
Streptococcus sp.; broth dilution, strain ATCC 6301
  MIC Streptococcus pneumoniae (ATCC 6301): 64 µg/mL (≈ 48.8 µM)
Streptococcus sp.; broth dilution, strain GC 1894
  MIC Streptococcus pneumoniae (GC 1894): 64 µg/mL (≈ 48.8 µM)
Streptococcus sp.; broth dilution, strain GC 4563
  MIC Streptococcus pyogenes (GC 4563): >64 µg/mL
Streptococcus sp.; broth dilution, strain GC 4564
  MIC Streptococcus agalactiae (GC 4564): >64 µg/mL
Streptococcus sp.; broth dilution, strain GC 4565
  MIC Streptococcus pneumoniae (GC 4565): 64 µg/mL (≈ 48.8 µM)
Staphylococcus sp.
  MIC Coagulase Negative Staphylococcus (GC 4547): >64 µg/mL
  MIC Coagulase Negative Staphylococcus (GC 4548): >64 µg/mL
  MIC Coagulase Negative Staphylococcus (GC 4549): >64 µg/mL
  MIC Coagulase Negative Staphylococcus (GC 4551): >64 µg/mL
  MIC Coagulase Negative Staphylococcus (GC 6257): >64 µg/mL
  MIC Staphylococcus aureus (ATCC 29213): >64 µg/mL
  MIC Staphylococcus aureus (GC 1131): >64 µg/mL
  MIC Staphylococcus aureus (GC 3051): >64 µg/mL
  MIC Staphylococcus aureus (GC 3053): >64 µg/mL
  MIC Staphylococcus aureus (GC 4541): >64 µg/mL
  MIC Staphylococcus aureus (GC 4542): >64 µg/mL
  MIC Staphylococcus aureus (GC 4544): >64 µg/mL
  MIC Staphylococcus aureus (GC 4545): >64 µg/mL
  MIC Staphylococcus aureus-SMITH (GC 4543): >64 µg/mL
  MIC Staphylococcus haemolyticus (GC 4546): >64 µg/mL
Staphylococcus sp.; broth dilution
  MIC Coagulase Negative Staphylococcus (GC 4547): >64 µg/mL
  MIC Coagulase Negative Staphylococcus (GC 4548): >64 µg/mL
  MIC Coagulase Negative Staphylococcus (GC 4549): >64 µg/mL
  MIC Coagulase Negative Staphylococcus (GC 4551): >64 µg/mL
  MIC Coagulase Negative Staphylococcus (GC 6257): >64 µg/mL
  MIC Staphylococcus aureus (ATCC 29213): >64 µg/mL
  MIC Staphylococcus aureus (GC 1131): >64 µg/mL
  MIC Staphylococcus aureus (GC 3051): >64 µg/mL
  MIC Staphylococcus aureus (GC 3053): >64 µg/mL
  MIC Staphylococcus aureus (GC 4541): >64 µg/mL
  MIC Staphylococcus aureus (GC 4542): >64 µg/mL
  MIC Staphylococcus aureus (GC 4544): >64 µg/mL
  MIC Staphylococcus aureus (GC 4545): >64 µg/mL
  MIC Staphylococcus aureus-SMITH (GC 4543): >64 µg/mL
  MIC Staphylococcus haemolyticus (GC 4546): >64 µg/mL
Enterococcus sp.; Enterococcus avium (GC 4558)
  MIC Enterococcus avium (GC 4558): 64 µg/mL (≈ 48.8 µM)
Enterococcus sp.; [3]
  MIC Enterococcus faecalis (ATCC 29212): >64 µg/mL
Enterococcus sp.; [4]
  MIC Enterococcus faecalis (GC 4553): >64 µg/mL
Enterococcus sp.; [5]
  MIC Enterococcus faecalis (GC 4554): >64 µg/mL
Enterococcus sp.; Enterococcus faecalis (GC 6189)
  MIC Enterococcus faecalis (GC 6189): >64 µg/mL
Enterococcus sp.; Enterococcus faecium (GC 2243)
  MIC Enterococcus faecium (GC 2243): >64 µg/mL
Enterococcus sp.; Enterococcus faecium (GC 4556)
  MIC Enterococcus faecium (GC 4556): >64 µg/mL
Enterococcus sp.; Enterococcus faecium (GC 4557)
  MIC Enterococcus faecium (GC 4557): 64 µg/mL (≈ 48.8 µM)
Enterococcus sp.; broth dilution, 18 hours at 35° C., strain ATCC 29212
  MIC Enterococcus faecalis (ATCC 29212): >64 µg/mL
Enterococcus sp.; broth dilution, 18 hours at 35° C., strain GC 2242
  MIC Enterococcus faecalis (GC 2242): >64 µg/mL
Enterococcus sp.; broth dilution, 18 hours at 35° C., strain GC 2243
  MIC Enterococcus faecium (GC 2243): >64 µg/mL
Enterococcus sp.; broth dilution, 18 hours at 35° C., strain GC 2691
  MIC Enterococcus faecalis (GC 2691): >64 µg/mL
Enterococcus sp.; broth dilution, 18 hours at 35° C., strain GC 3059
  MIC Enterococcus faecalis (GC 3059): >64 µg/mL
Enterococcus sp.; broth dilution, 18 hours at 35° C., strain GC 4552
  MIC Enterococcus faecalis (GC 4552): >64 µg/mL
Enterococcus sp.; broth dilution, 18 hours at 35° C., strain GC 4553
  MIC Enterococcus faecalis (GC 4553): >64 µg/mL
Enterococcus sp.; broth dilution, 18 hours at 35° C., strain GC 4554
  MIC Enterococcus faecalis (GC 4554): >64 µg/mL
Enterococcus sp.; broth dilution, 18 hours at 35° C., strain GC 4556
  MIC Enterococcus faecium (GC 4556): >64 µg/mL
Enterococcus sp.; broth dilution, 18 hours at 35° C., strain GC 4557
  MIC Enterococcus faecium (GC 4557): 64 µg/mL (≈ 48.8 µM)
Enterococcus sp.; broth dilution, 18 hours at 35° C., strain GC 4558
  MIC Enterococcus avium (GC 4558): 64 µg/mL (≈ 48.8 µM)
Enterococcus sp.; broth dilution, 18 hours at 35° C., strain GC 6189
  MIC Enterococcus faecalis (GC 6189): >64 µg/mL
